Literature values, collected in patent publication US9884842B2, “Combretastatin analogs” (The Board of Trustees of the University of Arkansas, priority 2013, dated 2018).

Tests used:
Conditions in all cases: background; cited from earlier work
[1] = test system: multidrug resistant (MDR) cancer cell lines
[2] = test system: tubulin
[3] = test system: tubulin; remark: listed apart in the source

COc1ccc(/C=C\c2cc(OC)c(OC)c(OC)c2)cc1O [combretastatin A-4]
activity against multidrug resistant (MDR) cancer cell lines [1]: active | inhibition of tubulin polymerization [2]: inhibit tubulin polymerization | inhibition of binding of radiolabeled colchicines to tubulin [3]: competitively inhibit the binding of radiolabeled colchicines to tubulin
